Assay results: paper PMC7766159, “Novel Psychoactive Phenethylamines: Impact on Genetic Material” (International Journal of Molecular Sciences, 2020)

Key:
[1] = test system: TK6 cells; assay: Cytostasis analysis (Relative Population Doubling, Guava ViaCount); type: cell-based, human; conditions: for Relative Population Doubling (RPD): 26 h treatment, vs untreated control C (-) = 100%, mean ± SEM; for concentrations that caused an RPD value well above 55 ± 5% (OECD threshold): 26 h, tested 6.25-75 µM
Excerpt: In addition, to make the genotoxicity test reliable, it is necessary to check the cellular proliferation in order to verify that a sufficient number of cells has undergone mitosis and so transmitted the genetic damage suffered to the daughter cells. For this purpose, the OECD recommends the measurement of the Relative Population Doubling (RPD) to estimate the cytostasis and, analogously to the cytotoxicity, establishes a threshold at most equal to 55 ± 5% [45].
(§1) In all experiments, aliquots of 2 × 10^5 of TK6 cells were treated with increasing concentrations of phenethylamines from 0 to 75 µM and incubated for 26 h, corresponding to two replication cycles for the analysis of cytotoxicity, cytostasis, apoptosis, and genotoxicity, while for the analysis of ROS, 1 h of treatment was performed.
In parallel, always using the Guava ViaCount Reagent, the number of cells seeded at time 0 and that measured at the end of the phenethylamines treatment time was used to check the correct replication in the control cultures and to compare it to that measured in the treated cultures by the RPD, calculated as the following formula [46, 47]: RPD= (No. of Population doublings in treated cultures)/(No. of Population doublings in control cultures) × 100
Similarly to cytotoxicity, the cytostasis was checked in order to verify that cell proliferation respected the threshold established by the OECD guideline (55 ± 5%).

[2] = test system: TK6 cells; assay: Genotoxicity analysis (micronucleus frequency, automated flow cytometric protocol); type: cell-based, human; conditions: for MNi frequency fold increase: vs C (-); for relative genotoxic potency: comparison within the series
Method: as §1
The analysis of the MNi frequency was performed using a new automated flow cytometric protocol that we recently developed in our laboratory. The detailed protocol is described in the paper by Lenzi et al. and was used in our previous publication to analyze the genotoxicity of some synthetic cannabinoids.
Briefly, at the end of the phenethylamines treatment time, 7 × 10^5 cells were collected and incubated with 7-AAD at RT for 5 min, after which the cells were lysed and stained with SYTOX Green for 1 h. After, a total of 10,000 nuclei, derived from viable and proliferating cells (7-AAD negative), and the corresponding number of micronuclei were acquired. The discrimination between nuclei and MNi occurs on the basis of the different size analyzed by Forward Scatter (FSC), and the different intensity of green fluorescence (SYTOX Green).
The MNi frequencies (number of MNi/10,000 nuclei) recorded in treated cultures were normalized on those recorded in the untreated control cultures, accounted equal to 1 and expressed as MNi frequency fold increase.
As recommended by OECD guideline 487, we used MMC and VINB as positive controls, being known clastogen and aneuploidogen agents, respectively.

[3] = test system: TK6 cells; assay: Apoptosis analysis (Guava Nexin Assay); type: cell-based, human; conditions: 26 h
Method: as §1
The percentage of apoptotic cells was evaluated by the Guava Nexin Assay according to the procedure by Lenzi et al..
Briefly, at the end of the phenethylamines treatment time, the percentage of apoptotic cells was assessed using the Guava Nexin Reagent. The reagent contains the 7-aminoactinomycin D (7-AAD), a cell non-permeant dye, that allows discrimination between live and dead cells and the Annexin-V-PE that allows the identification of apoptotic cells by binding the phosphatidylserine on the cell surface.
100 μL of reagent were added to 100 μL of cell suspension (~1 × 10^5 cells) and incubated for 20 min at RT. After, a total of 2000 events were acquired and analyzed by Guava Nexin software.
The apoptotic cell percentages recorded in the cultures treated with phenethylamines different concentrations were normalized on those recorded in the untreated control cultures, accounted equal to 1 and expressed as apoptotic fold increase.

[4] = test system: TK6 cells; assay: Cytotoxicity analysis (Guava ViaCount, cell viability); type: cell-based, human; conditions: 26 h; for concentration up to which no cytotoxicity and cytostasis was induced: Guava ViaCount assay
Method: In the preliminary phase of the research, we determined the concentrations to be used in the subsequent experiments aimed at evaluating the potential genotoxicity of different molecules under study. First, we assessed the 2C-H, 2C-I, 2C-B, 25B-NBOMe, and MDMA-induced cytotoxicity after 26 h treatment (time required by TK6 cells to carry out two cell cycles) by measuring the percentage of live cells at the different concentrations tested (6.25, 12.5, 25, 35, 50, 75 µM). This value was normalized on the one obtained in the untreated control cultures C (-) equal to 100% in order to check whether the cellular viability complied with the OECD threshold (equal to 55 ± 5%).
as §1
Cytotoxicity assay was performed as previously described by Lenzi et al.. Briefly, at the end of the phenethylamines treatment time, 1.5 × 10^5 cells were stained with Guava ViaCount Reagent. The reagent contains the Propidium Iodide (PI) that allows us to discriminate viable from dead cells based on different permeability to DNA-binding dye.
180 μL of reagent were added to 20 μL of cell suspension and incubated for 5 min at room temperature (RT). After, a total of 1000 events were acquired and analyzed by Guava ViaCount software.
The results obtained from the samples treated with different concentrations of phenethylamines were normalized on those obtained from the untreated control cultures, accounted equal to 100%.

[5] = test system: HepG2 cells; design: method as in PMID 31068823; conditions: cited from earlier work
[6] = test system: TK6 cells; assay: ROS analysis (DCFH2-DA fluorescence); type: cell-based, human; conditions: 1 h; 35 µM for 2C-H, 2C-I and MDMA, 12.5 µM for 2C-B and 25B-NBOMe; vs C (-) equal to 1
Method: Lastly, in order to identify a possible mechanism of action at the basis of the genotoxic activity, TK6 cells were treated for 1 h with the highest concentration tested for each substance: 35 µM for 2C-H, 2C-I and MDMA, and 12.5 µM for 2C-B and 25B-NBOMe, and then the possible ROS induction was measured.
as §1
At the end of the phenethylamines treatment time, 2 × 10^5 cells were centrifuged, resuspended in PBS1X to measure intracellular ROS level and stained at 37 °C in the dark for 20 min with 2′,7′-dichlorodihydrofluorescin diacetate (DCFH2-DA). After, a total of 5000 events, derived from viable cells, were acquired and analyzed using Guava Incyte software.
The fluorescence intensity of 2′,7′-dichlorofluorescin (DCF) (which forms in cells in the presence of ROS) recorded in treated cultures was normalized on those recorded in the untreated control cultures, accounted equal to 1 and expressed as a ROS fold increase.

[7] = test system: primary rat hepatocytes; design: method as in PMID 27255387; conditions: 24 h; cited from earlier work
[8] = test system: undifferentiated and differentiated human SH-SY5Y cells; design: method as in PMID 28067045; conditions: cited from earlier work
[9] = test system: C2C12 myoblast cells; design: method as in PMID 30925718; conditions: concentrations 30 times higher than in this study, 24 h; cited from earlier work
[10] = test system: SH-SY5Y; design: method as in PMID 28067045, PMID 30925718, PMID 28527032; conditions: 2–24 h treatment, concentration-dependent (1000–3000 μM); cited from earlier work
[11] = test system: HepG2; design: method as in PMID 28645576; conditions: 24 h treatment; cited from earlier work
[12] = test system: TK6 cells; design: method as in PMID 27637481; conditions: CYP1A1, 1B1 and 1A2 not expressed; cited from earlier work
[13] = both tested concentrations, 6.25 µM and 12.5 µM, 26 h
[14] = vs untreated control C (-) equal to 1, tested concentrations

Row | Structure (SMILES) | Relative Population Doubling (RPD) ([1]; 6.25 µM) | Relative Population Doubling (RPD) ([1]; 12.5 µM) | Relative Population Doubling (RPD) ([1]; 25 µM) | Relative Population Doubling (RPD) ([1]; 35 µM) | Relative Population Doubling (RPD) ([1]; 50 µM) | Relative Population Doubling (RPD) ([1]; 75 µM) | concentrations that caused an RPD value well above 55 ± 5% (OECD threshold) [1] | also measured
1 | COc1cc(CCN)c(OC)cc1Br [2C-B, 2,5-dimethoxy-4-bromophenethylamine] | 95.9% ± 0.7 | 93.1% ± 2.1 | 69.7% ± 1.6 | 63.1% ± 1.6 | 10.0% ± 1.8 | 0.0% | up to 35 µM | MNi frequency fold increase [2, 13]: increased at both the tested concentrations; relative genotoxic potency [2]: stronger genotoxic agents than 2C-I and 2C-H; apoptosis fold increase ([3]; 25 µM and 35 µM, vs C (-)): statistically significant increase; concentration up to which no cytotoxicity and cytostasis was induced [4]: up to 35 µM
2 | COc1ccc(OC)c(CCN)c1 [2C-H, 2,5-dimethoxyphenethylamine] | 97.5% ± 0.9 | 81.1% ± 1.8 | 85.0% ± 2.4 | 74.0% ± 1.8 | 34.1% ± 1.2 | 13.0% ± 1.5 | up to 35 µM | MNi frequency fold increase ([2]; 35 µM, 26 h): statistically significant increase; apoptosis fold increase [3, 14]: never reached a doubling; concentration up to which no cytotoxicity and cytostasis was induced [4]: up to 35 µM
3 | COc1cc(CCN)c(OC)cc1I [2C-I, 2,5-Dimethoxy-4-iodophenethylamine] | 90.9% ± 0.7 | 89.6% ± 2.2 | 72.5% ± 2.0 | 63.9% ± 1.6 | 54.8% ± 0.9 | 30.8% ± 1.0 | up to 35 µM | MNi frequency fold increase ([2]; 35 µM, 26 h): statistically significant increase; apoptosis fold increase [3, 14]: never reached a doubling; concentration up to which no cytotoxicity and cytostasis was induced [4]: up to 35 µM
4 | CC(N)Cc1ccc(Cl)cc1 (stereo not shown) [4-chloroamphetamine] |  |  |  |  |  |  |  | mitochondrial superoxide levels [5]: increase mitochondrial superoxide levels
5 | CC(N)Cc1ccc(F)cc1 (stereo not shown) [4-fluoroamphetamine, 4-Fluoroamphetamine] |  |  |  |  |  |  |  | mitochondrial superoxide levels [5]: increase mitochondrial superoxide levels
6 | COc1cc(CCNCc2ccccc2OC)c(OC)cc1Br [25B-NBOMe, 4-bromo-2,5-dimethoxy-N-[(2-methoxyphenyl)methyl]-benzeneethanamine] | 86.4% ± 1.3 | 81.2% ± 2.0 | 50.0% ± 0.8 | 1.0% ± 0.2 | 0.0% | 0.0% | up to 12.5 µM | MNi frequency fold increase [2, 13]: increased at both the tested concentrations; relative genotoxic potency [2]: stronger genotoxic agents than 2C-I and 2C-H; apoptosis fold increase [3, 14]: never reached a doubling; concentration up to which no cytotoxicity and cytostasis was induced [4]: up to 12.5 µM
7 | CNC(C)Cc1ccc2c(c1)OCO2 (stereo not shown) [MDMA, 3,4-methylenedioxy-methamphetamine, reference compound] | 96.0% ± 1.0 | 96.0% ± 0.8 | 98.7% ± 0.9 | 98.0% ± 1.5 | 96.0% ± 1.2 | 91.9% ± 1.3 | all the concentrations tested | ROS fold increase (mean fluorescence intensity) [6]: did not highlight any ROS level increase; ROS levels [7]: increase of ROS levels; MNi frequency fold increase ([2]; 25 and 35 µM, 26 h): did not increase the MNi frequency in any case; genotoxicity (MN test outcome) ([2]; 26 h, without metabolic activation): not genotoxic; apoptosis fold increase [3, 14]: never reached a doubling; cytotoxic and cytostatic effect ([4]; all concentrations tested (6.25-75 µM)): did not show a cytotoxic and cytostatic effect; production of ROS [8]: unable to trigger the production of ROS; mitochondrial superoxide production [9]: increase in the mitochondrial superoxide production
8 | CCCC(C(=O)c1ccc2c(c1)OCO2)N1CCCC1 (stereo not shown) [MDPV] |  |  |  |  |  |  |  | superoxide levels [10]: increase in superoxide levels; concentration that increased O2•− levels [11]: 2 mM
9 | CC(N)Cc1ccccc1 (stereo not drawn) [amphetamine, α-methylphenylethylamine] |  |  |  |  |  |  |  | mitochondrial superoxide levels [5]: increase mitochondrial superoxide levels
10 | c1ccc2c(c1)cc1ccc3cccc4ccc2c1c34 [benzo [a] pyrene] |  |  |  |  |  |  |  | micronuclei induction [12]: failed to induce micronuclei
11 | CNC(C)C(=O)c1ccc(C)cc1 (stereo not shown) [mephedrone] |  |  |  |  |  |  |  | concentration that increased O2•− levels [11]: 1 mM
12 | CNC(C)C(=O)c1ccc2c(c1)OCO2 (stereo not shown) [methylone] |  |  |  |  |  |  |  | superoxide levels [10]: increase in superoxide levels
13 | CCCC(C(=O)c1ccc2ccccc2c1)N1CCCC1 (stereo not shown) [naphyrone] |  |  |  |  |  |  |  | concentration that increased O2•− levels [11]: 0.2 mM
14 | CCCC(C(=O)c1ccccc1)N1CCCC1 (stereo not shown) [αPVP] |  |  |  |  |  |  |  | superoxide levels [10]: increase in superoxide levels
